Read-outs that look alike come from different tables or passages of the source.
Key:
Assay in all cases: KiNativ assay
Type in all cases: binding
GCK = GCK (Homo sapiens (Human), UniProt Q12851); conditions: H929 live cell, read-out: inhibition (10 μM)
Protocol: (§1) Biochemical IC50s of the compounds of the present disclosure against various kinases were measured in a KiNativ assay. Compounds were screened in duplicate at 10 μM in H929 live cell. IC50 was measured via Mass spectroscopy (MS).

AurA, AurB, AurC = conditions: H929 live cell
Protocol: as §1

PKCi = PKCi (Homo sapiens (Human), UniProt P41743); conditions: H929 live cell
PKCi, sequence (P41743 whole entry): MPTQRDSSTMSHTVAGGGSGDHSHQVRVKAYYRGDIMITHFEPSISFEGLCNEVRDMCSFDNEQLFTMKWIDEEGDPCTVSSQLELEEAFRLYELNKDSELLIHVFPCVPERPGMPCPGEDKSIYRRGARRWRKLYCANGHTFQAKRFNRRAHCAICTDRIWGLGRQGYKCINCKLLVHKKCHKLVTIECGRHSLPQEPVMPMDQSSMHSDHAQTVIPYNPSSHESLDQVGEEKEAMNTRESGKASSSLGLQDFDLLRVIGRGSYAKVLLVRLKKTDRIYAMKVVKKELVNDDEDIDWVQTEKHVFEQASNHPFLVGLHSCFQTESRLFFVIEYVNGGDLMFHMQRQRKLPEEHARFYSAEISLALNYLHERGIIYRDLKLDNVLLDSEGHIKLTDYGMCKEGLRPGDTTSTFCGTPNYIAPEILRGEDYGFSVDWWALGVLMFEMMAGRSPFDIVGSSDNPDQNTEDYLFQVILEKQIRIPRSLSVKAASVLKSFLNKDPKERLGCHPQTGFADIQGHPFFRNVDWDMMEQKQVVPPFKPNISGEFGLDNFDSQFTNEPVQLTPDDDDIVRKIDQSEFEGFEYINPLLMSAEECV
Protocol: as §1

MAP2K4 = MAP2K4 (Homo sapiens (Human), UniProt P45985); conditions: H929 live cell
Protocol: as §1

AurB = AurB (Homo sapiens (Human), UniProt Q96GD4); conditions: H929 live cell
AurB, sequence (Q96GD4 whole entry): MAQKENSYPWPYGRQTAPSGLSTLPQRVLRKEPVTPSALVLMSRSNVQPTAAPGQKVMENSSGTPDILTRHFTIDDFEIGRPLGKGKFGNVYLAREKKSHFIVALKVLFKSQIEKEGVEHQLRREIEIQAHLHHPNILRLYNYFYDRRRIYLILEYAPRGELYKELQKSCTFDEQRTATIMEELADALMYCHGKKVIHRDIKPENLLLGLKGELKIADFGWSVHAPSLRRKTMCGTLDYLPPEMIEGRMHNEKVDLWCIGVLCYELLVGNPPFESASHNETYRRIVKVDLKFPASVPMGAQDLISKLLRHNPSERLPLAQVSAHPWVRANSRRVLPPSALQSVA
Protocol: as §1

ACK = ACK (Homo sapiens (Human), UniProt Q07912); conditions: H929 live cell
Protocol: as §1

PIK3CG = PIK3CG (Homo sapiens (Human), UniProt P48736); conditions: H929 live cell
Protocol: as §1

MST4 = conditions: H929 live cell
Protocol: as §1

RSKL1 = RSKL1 (Homo sapiens (Human), UniProt Q96S38); conditions: H929 live cell
Protocol: as §1

p38a = p38a (Homo sapiens (Human), UniProt Q16539); conditions: H929 live cell, read-out: % inhibition (range)
Protocol: as §1

PKR = PKR (Homo sapiens (Human), UniProt P19525); conditions: H929 live cell
Protocol: as §1

eEF2K = eEF2K (Homo sapiens (Human), UniProt O00418); conditions: H929 live cell
Protocol: as §1

Erk2 = Erk2 (Homo sapiens (Human), UniProt P28482); conditions: H929 live cell
Erk2, sequence (P28482 whole entry): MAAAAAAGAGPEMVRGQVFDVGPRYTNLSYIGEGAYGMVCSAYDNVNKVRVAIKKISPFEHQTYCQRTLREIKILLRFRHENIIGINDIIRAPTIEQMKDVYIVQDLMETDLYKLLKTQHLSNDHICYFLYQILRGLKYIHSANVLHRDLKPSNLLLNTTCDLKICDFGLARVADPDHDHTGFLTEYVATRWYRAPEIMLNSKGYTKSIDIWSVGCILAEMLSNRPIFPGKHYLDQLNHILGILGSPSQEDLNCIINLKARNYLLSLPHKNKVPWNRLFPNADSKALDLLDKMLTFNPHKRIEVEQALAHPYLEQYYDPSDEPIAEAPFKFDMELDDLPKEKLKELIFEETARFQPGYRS
Protocol: as §1

FRAP = FRAP (Homo sapiens (Human), UniProt P42345); conditions: H929 live cell
Protocol: as §1

PKD3 = PKD3 (Homo sapiens (Human), UniProt O94806); conditions: H929 live cell
Protocol: as §1

GSK3B = GSK3B (Homo sapiens (Human), UniProt P49841); conditions: H929 live cell
GSK3B, sequence (P49841 whole entry): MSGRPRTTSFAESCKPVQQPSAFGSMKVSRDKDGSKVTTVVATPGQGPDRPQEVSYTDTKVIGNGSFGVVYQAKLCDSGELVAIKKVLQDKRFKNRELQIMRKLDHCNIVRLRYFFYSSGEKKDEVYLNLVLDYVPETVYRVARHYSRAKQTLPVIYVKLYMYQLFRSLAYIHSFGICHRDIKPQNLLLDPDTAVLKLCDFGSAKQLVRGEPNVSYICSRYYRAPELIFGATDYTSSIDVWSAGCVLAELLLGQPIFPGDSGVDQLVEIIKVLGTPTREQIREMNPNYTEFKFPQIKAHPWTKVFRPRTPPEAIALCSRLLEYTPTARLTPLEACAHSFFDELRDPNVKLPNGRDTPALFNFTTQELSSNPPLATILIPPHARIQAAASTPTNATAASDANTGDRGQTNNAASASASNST
Protocol: as §1

PRP4 = PRP4 (Homo sapiens (Human), UniProt Q13523); conditions: H929 live cell
Protocol: as §1

SMG1 = SMG1 (Homo sapiens (Human), UniProt Q96Q15); conditions: H929 live cell
Protocol: as §1

PIK3CB = PIK3CB (Homo sapiens (Human), UniProt P42338); conditions: H929 live cell
Protocol: as §1

MAP3K2 = MAP3K2 (Homo sapiens (Human), UniProt Q9Y2U5); conditions: H929 live cell
Protocol: as §1

MST1, MST2 = conditions: H929 live cell
Protocol: as §1

AKT1 = AKT1 (Homo sapiens (Human), UniProt P31749); conditions: H929 live cell
Protocol: as §1

MLK3 = MLK3 (Homo sapiens (Human), UniProt Q16584); conditions: H929 live cell
Protocol: as §1

RSK2 domain2 = RSK2 domain2 (Homo sapiens (Human), UniProt P51812); conditions: H929 live cell
Protocol: as §1

CaMKK2 = CaMKK2 (Homo sapiens (Human), UniProt Q96RR4); conditions: H929 live cell
Protocol: as §1

PAN3 = PAN3 (Homo sapiens (Human), UniProt Q58A45); conditions: H929 live cell
Protocol: as §1

CaMK2g = CaMK2g (Homo sapiens (Human), UniProt Q13555); conditions: H929 live cell
CaMK2g, sequence (Q13555 whole entry): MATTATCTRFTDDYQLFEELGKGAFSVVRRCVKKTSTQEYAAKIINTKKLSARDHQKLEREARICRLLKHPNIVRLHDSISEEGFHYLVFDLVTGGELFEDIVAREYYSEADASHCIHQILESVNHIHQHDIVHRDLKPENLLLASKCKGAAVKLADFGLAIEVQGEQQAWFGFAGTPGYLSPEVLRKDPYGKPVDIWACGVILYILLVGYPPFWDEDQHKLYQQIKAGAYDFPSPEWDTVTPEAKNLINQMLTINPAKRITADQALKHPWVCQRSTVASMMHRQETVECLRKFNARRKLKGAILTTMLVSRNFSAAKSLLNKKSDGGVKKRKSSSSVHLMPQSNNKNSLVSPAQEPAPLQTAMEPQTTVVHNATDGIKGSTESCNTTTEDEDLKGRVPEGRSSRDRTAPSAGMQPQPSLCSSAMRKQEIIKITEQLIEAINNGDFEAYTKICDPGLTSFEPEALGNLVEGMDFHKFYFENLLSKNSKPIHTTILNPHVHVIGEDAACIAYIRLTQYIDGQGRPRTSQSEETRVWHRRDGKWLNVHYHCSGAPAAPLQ
Protocol: as §1

PKCz = PKCz (Homo sapiens (Human), UniProt Q05513); conditions: H929 live cell
PKCz, sequence (Q05513 whole entry): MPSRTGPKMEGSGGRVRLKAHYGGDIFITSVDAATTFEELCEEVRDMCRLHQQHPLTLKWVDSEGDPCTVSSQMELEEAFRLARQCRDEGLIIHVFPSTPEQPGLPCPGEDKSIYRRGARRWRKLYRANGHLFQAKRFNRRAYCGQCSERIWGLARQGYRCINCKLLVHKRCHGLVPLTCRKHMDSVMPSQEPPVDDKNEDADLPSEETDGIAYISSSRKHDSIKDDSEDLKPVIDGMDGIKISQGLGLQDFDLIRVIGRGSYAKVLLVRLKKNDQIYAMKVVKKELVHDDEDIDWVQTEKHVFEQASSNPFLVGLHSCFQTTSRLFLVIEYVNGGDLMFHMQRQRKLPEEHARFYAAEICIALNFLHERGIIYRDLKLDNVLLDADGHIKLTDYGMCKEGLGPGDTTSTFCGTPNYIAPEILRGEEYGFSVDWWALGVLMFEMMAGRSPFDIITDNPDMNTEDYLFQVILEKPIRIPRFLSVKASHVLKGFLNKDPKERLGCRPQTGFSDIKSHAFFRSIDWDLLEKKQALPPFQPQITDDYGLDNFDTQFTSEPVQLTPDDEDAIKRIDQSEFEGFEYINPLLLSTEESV
Protocol: as §1

CDK7 = CDK7 (Homo sapiens (Human), UniProt P50613); conditions: H929 live cell
CDK7, sequence (P50613 whole entry): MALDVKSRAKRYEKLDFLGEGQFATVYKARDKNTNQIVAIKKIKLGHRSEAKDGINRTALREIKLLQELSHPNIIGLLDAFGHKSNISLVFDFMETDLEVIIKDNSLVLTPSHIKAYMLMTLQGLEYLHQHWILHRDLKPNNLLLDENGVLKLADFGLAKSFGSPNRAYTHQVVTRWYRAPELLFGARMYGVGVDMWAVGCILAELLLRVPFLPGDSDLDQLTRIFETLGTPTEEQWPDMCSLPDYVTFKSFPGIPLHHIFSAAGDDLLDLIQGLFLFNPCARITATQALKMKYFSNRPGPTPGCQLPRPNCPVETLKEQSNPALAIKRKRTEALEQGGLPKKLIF
CDK7, sequence (P51946 whole entry partner): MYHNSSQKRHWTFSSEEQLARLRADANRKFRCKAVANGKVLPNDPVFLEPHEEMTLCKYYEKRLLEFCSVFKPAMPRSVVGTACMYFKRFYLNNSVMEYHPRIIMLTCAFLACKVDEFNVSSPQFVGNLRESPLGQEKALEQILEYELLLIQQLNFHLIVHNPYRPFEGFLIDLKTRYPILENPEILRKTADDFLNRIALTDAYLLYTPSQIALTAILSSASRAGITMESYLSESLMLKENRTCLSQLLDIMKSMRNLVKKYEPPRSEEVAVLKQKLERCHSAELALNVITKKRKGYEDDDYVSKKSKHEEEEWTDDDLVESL
CDK7, sequence (P51948 whole entry partner): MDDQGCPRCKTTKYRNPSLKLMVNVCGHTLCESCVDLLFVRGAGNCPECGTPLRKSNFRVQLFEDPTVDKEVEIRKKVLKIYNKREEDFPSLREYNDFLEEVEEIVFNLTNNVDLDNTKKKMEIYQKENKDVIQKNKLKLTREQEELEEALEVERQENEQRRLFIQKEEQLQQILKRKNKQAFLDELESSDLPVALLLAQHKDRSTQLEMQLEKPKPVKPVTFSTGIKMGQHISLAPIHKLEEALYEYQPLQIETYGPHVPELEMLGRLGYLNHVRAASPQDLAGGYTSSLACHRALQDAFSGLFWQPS
Protocol: as §1

MARK2, MARK3 = conditions: H929 live cell
Protocol: as §1

BRAF = BRAF (Homo sapiens (Human), UniProt P15056); conditions: H929 live cell
Protocol: as §1

STLK3 = STLK3 (Homo sapiens (Human), UniProt Q9UEW8); conditions: H929 live cell
Protocol: as §1

MARK1, MARK2 = conditions: H929 live cell
Protocol: as §1

PEK = PEK (Homo sapiens (Human), UniProt Q9NZJ5); conditions: H929 live cell
PEK, sequence (Q9NZJ5 30-1116): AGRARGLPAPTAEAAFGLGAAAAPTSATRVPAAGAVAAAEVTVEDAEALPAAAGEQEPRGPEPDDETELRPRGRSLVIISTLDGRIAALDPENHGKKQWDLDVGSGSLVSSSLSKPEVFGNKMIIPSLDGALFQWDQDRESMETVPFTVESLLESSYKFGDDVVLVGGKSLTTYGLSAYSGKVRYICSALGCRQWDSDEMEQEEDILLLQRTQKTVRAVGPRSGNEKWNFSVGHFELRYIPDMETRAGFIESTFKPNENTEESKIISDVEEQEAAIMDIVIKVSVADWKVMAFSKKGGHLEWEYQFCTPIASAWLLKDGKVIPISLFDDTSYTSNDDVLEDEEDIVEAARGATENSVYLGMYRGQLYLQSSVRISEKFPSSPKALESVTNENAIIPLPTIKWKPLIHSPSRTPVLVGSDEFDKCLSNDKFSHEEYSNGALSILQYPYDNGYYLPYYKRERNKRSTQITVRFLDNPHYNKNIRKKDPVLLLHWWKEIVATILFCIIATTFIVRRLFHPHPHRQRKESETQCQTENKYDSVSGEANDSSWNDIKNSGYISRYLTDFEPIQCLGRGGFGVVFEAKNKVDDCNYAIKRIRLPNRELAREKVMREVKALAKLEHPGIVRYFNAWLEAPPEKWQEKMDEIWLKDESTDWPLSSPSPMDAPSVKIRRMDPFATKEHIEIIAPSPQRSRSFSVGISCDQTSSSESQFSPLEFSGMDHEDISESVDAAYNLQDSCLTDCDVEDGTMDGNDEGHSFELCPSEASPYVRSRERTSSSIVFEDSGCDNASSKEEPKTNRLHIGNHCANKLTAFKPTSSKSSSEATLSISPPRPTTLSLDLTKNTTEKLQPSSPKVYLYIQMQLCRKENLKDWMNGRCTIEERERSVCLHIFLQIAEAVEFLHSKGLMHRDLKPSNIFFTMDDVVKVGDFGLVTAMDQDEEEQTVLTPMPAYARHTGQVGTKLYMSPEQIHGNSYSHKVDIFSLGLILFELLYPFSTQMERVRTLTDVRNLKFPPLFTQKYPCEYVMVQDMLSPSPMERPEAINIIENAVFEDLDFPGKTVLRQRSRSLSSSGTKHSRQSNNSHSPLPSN
Protocol: as §1

## Nc1ncc(-c2cccc([N+](=O)[O-])c2F)cc1-c1ccc2c(c1)CCNC2=O [Compound I-9, 6-(2-amino-5-(2-fluoro-3-nitrophenyl)pyridin-3-yl)-3,4-dihydroisoquinolin-1(2H)-one]
GCK
  inhibition at 10 µM: 91.5%
AurA, AurB, AurC; 10 μM
  % inhibition (range): 50-75%
AurA, AurB, AurC
  inhibition (10 μM): 66.2%
PKCi; read-out: % inhibition (range)
  inhibition at 10 µM: 0%
PKCi; read-out: inhibition (10 μM)
  inhibition at 10 µM: 18.5%
MAP2K4; read-out: % inhibition (range)
  inhibition at 10 µM: 50 to 75%
MAP2K4; read-out: inhibition (10 μM)
  inhibition at 10 µM: 72.9%
AurB; read-out: % inhibition (range)
  inhibition at 10 µM: 50 to 75%
AurB; read-out: inhibition (10 μM)
  inhibition at 10 µM: 53.4%
ACK; read-out: % inhibition (range)
  inhibition at 10 µM: 0%
ACK; read-out: inhibition (10 μM)
  inhibition at 10 µM: -17.3%
PIK3CG; read-out: % inhibition (range)
  inhibition at 10 µM: 0%
PIK3CG; read-out: inhibition (10 μM)
  inhibition at 10 µM: 16.3%
MST4
  inhibition (10 μM): 47.0%
RSKL1; read-out: % inhibition (range)
  inhibition at 10 µM: 0%
RSKL1; read-out: inhibition (10 μM)
  inhibition at 10 µM: 0.2%
p38a
  inhibition at 10 µM: 75 to 90%
PKR; read-out: % inhibition (range)
  inhibition at 10 µM: 0%
PKR; read-out: inhibition (10 μM)
  inhibition at 10 µM: -36.7%
eEF2K; read-out: % inhibition (range)
  inhibition at 10 µM: 0%
eEF2K; read-out: inhibition (10 μM)
  inhibition at 10 µM: -94.7%
Erk2; read-out: % inhibition (range)
  inhibition at 10 µM: 50 to 75%
Erk2; read-out: inhibition (10 μM)
  inhibition at 10 µM: 60.2%
FRAP; read-out: % inhibition (range)
  inhibition at 10 µM: 50 to 75%
FRAP; read-out: inhibition (10 μM)
  inhibition at 10 µM: 72.7%
PKD3; read-out: % inhibition (range)
  inhibition at 10 µM: 50 to 75%
PKD3; read-out: inhibition (10 μM)
  inhibition at 10 µM: 74.2%
GSK3B; read-out: % inhibition (range)
  inhibition at 10 µM: > 90%
GSK3B; read-out: inhibition (10 μM)
  inhibition at 10 µM: 97.2%
PRP4; read-out: % inhibition (range)
  inhibition at 10 µM: 50 to 75%
PRP4; read-out: inhibition (10 μM)
  inhibition at 10 µM: 70.2%
SMG1; read-out: % inhibition (range)
  inhibition at 10 µM: > 90%
SMG1; read-out: inhibition (10 μM)
  inhibition at 10 µM: 94.7%
PIK3CB; read-out: % inhibition (range)
  inhibition at 10 µM: 0%
PIK3CB; read-out: inhibition (10 μM)
  inhibition at 10 µM: 14.6%
MAP3K2; read-out: % inhibition (range)
  inhibition at 10 µM: 0%
MAP3K2; read-out: inhibition (10 μM)
  inhibition at 10 µM: 0.3%
MST1, MST2; 10 μM
  % inhibition (range): >90%
MST1, MST2
  inhibition (10 μM): 99.0%
AKT1; read-out: % inhibition (range)
  inhibition at 10 µM: 0%
AKT1; read-out: inhibition (10 μM)
  inhibition at 10 µM: 32.8%
MLK3; read-out: % inhibition (range)
  inhibition at 10 µM: 50 to 75%
MLK3; read-out: inhibition (10 μM)
  inhibition at 10 µM: 62.9%
RSK2 domain2; read-out: % inhibition (range)
  inhibition at 10 µM: 0%
RSK2 domain2; read-out: inhibition (10 μM)
  inhibition at 10 µM: -23.2%
CaMKK2; read-out: % inhibition (range)
  inhibition at 10 µM: 50 to 75%
CaMKK2; read-out: inhibition (10 μM)
  inhibition at 10 µM: 71.8%
PAN3; read-out: % inhibition (range)
  inhibition at 10 µM: 0%
PAN3; read-out: inhibition (10 μM)
  inhibition at 10 µM: -7.1%
CaMK2g; read-out: % inhibition (range)
  inhibition at 10 µM: 0%
CaMK2g; read-out: inhibition (10 μM)
  inhibition at 10 µM: -23%
PKCz; read-out: % inhibition (range)
  inhibition at 10 µM: 0%
PKCz; read-out: inhibition (10 μM)
  inhibition at 10 µM: 27%
CDK7; read-out: % inhibition (range)
  inhibition at 10 µM: 75 to 90%
CDK7; read-out: inhibition (10 μM)
  inhibition at 10 µM: 78.2%
MARK2, MARK3; 10 μM
  % inhibition (range): 50-75%
MARK2, MARK3
  inhibition (10 μM): 70.2%
BRAF; read-out: % inhibition (range)
  inhibition at 10 µM: 0%
BRAF; read-out: inhibition (10 μM)
  inhibition at 10 µM: 3.3%
STLK3; read-out: % inhibition (range)
  inhibition at 10 µM: 0%
STLK3; read-out: inhibition (10 μM)
  inhibition at 10 µM: -22.9%
MARK1, MARK2; 10 μM
  % inhibition (range): 35-50%
MARK1, MARK2
  inhibition (10 μM): 40.7%
PEK; read-out: % inhibition (range)
  inhibition at 10 µM: > 100%
PEK; read-out: inhibition (10 μM)
  inhibition at 10 µM: -100%

From patent US10710978B2, “STK4 inhibitors for treatment of hematologic malignancies” (Dana-Farber Cancer Institute, Inc., priority 2015, dated 2020)
